Experimental data as given in US11414465B2, “Plasma membrane intrinsic aquaporin for absorbing and transporting neonicotinoid insecticides, and coding gene and use therefor” (JIANGSU ACADEMY OF ARGRICULTURAL SCIENCES, priority 2020, dated 2022).

Key:
[1] = test system: BraPIP1;1 overexpression Arabidopsis thaliana (BraPIP1;1#4, BraPIP1;1#6); assay: Main root length of BraPIP1;1 transgenic Arabidopsis thaliana under thiamethoxam stress; format: in vivo; conditions: 1/2MS media with 10 and 50 mg/L thiamethoxam, 20 days, compared with wild type Col-0
Text: (§1) The BraPIP1;1 gene cloned in Example 1 was constructed into the plant binary overexpression vector pCAMBIA2301 (purchased from Clotech). By the Agrobacterium tumefaciens-mediated method (Valvekens, D., van Montagu, M., and Lijsebettens, M. V. (1988). Agrobacterium tumefaciens-mediated transformation of Arabidopsis thaliana root explants by using kanamycin selection. Proc. Natl. Acad. Sci. USA 85, 5536-5540.), the inflorescence of wild-type Arabidopsis thaliana Col-0 (purchased from ATCC, USA) was infected with the constructed overexpression vector. Through screening (resistance pure line seedlings were screened on a ½MS plate containing 50 μg/mL kanamycin), BraPIP1;1 overexpression Arabidopsis thaliana pure line materials BraPIP1;1#4 and BraPIP1;1#6 were identified and obtained.
The pure line seeds of the BraPIP1;1#4 and BraPIP1;1#6 obtained in the previous transgenic experiment and a wild-type Col-0 material (WT) were germinated on a ½MS medium respectively, and then transferred to ½MS media (Qingdao Hopebio Co., Ltd., Item No. HB8469-12, PH=5.6) containing 10 and 50 mg/L thiamethoxam respectively. After 20 days, the growth of the seedlings was observed and the main root length was measured.

[2] = test system: Saccharomyces cerevisiae INVSc1 (pYES2); assay: Thiamethoxam content experiment, control yeast strain; format: cell-based; conditions: 30° C., 6 h
Text: (§2) The BraPIP1;1 gene cloned in Example 1 was constructed into the Saccharomyces cerevisiae overexpression vector pYES2 (purchased from Clotech) referring to (He Lin, Jiang Lili, Wang Yucheng, Analysis of the stress tolerance of Tamarix thioredoxin peroxidase (ThPrx1) gene transformed into yeast, Journal of Northeast Forestry University, 2011, Vol. 39. No. 4, 101-104), and the constructed recombinant plasmid was named pYES2-BraPIP1;1. The pYES2-BraPIP1;1 and an empty vector pYES2 were transformed into Saccharomyces cerevisiae INVSc1 by lithium acetate precipitation. The recombinant yeasts were named INVSc1 (pYES2-BraPIP1;1) and INVSc1 (pYES2), respectively.
(§3) Induction of recombinant strains: Single colonies of the control yeast INvsc1 (pYES2) and the recombinant yeast INvscl (pYES2-BraPIP1;1) were picked, inoculated in an SC-U liquid medium (with glucose of a final concentration of 2%) respectively, and incubated at 30° C. for 24 h on a shaker. The OD600 value is measured, and the amount of bacterial solution required is calculated such that the OD600 of bacteria in 10 ml of induction medium (SC-U+2% galactose) is 0.4. Induce expression was carried out at 30° C. for 24 h. The OD600 value was measured again, and the amount of bacterial solution required was calculated. […]

BraPIP1;1 gene = assay: Response of BraPIP1;1 gene expression to thiamethoxam (quantitative RT-PCR); format: in vivo, Chinese cabbage; conditions: 10 mg/L thiamethoxam, p<0.001
Description: Seedlings of Chinese cabbage with the same growth condition were put in a Hoagland's nutrient solution containing 10 mg/L thiamethoxam (the Hoagland's nutrient solution was purchased from Beijing Coolaber Technology Co., Ltd.), and treated in the Hoagland's nutrient solution for 6 and 24 hours (treatment group).
At the same time, a Hoagland's nutrient solution without thiamethoxam was used as the control group.
Treated root and aboveground tissue RNA of two groups was extracted respectively, the 1st strand cDNA was obtained by reverse transcription as a template, specific expression primers were designed based on the cDNA sequence of BraPIP1;1, the Chinese cabbage Tublin was used as an internal reference, and the expression of the gene transcription level was detected by quantitative RT-PCR.
The quantification instrument is 7500 Real Time PCR System (Applied Biosystem), and a qPCRT system was configured according to the instructions of a kit 2×TSINGKE Master qPCR Mix (Tsingke Biotechnology Co., Ltd.). The PCR program is: pre-denaturation at 95° C. for 10 min, at 95° C. for 15 s, and at 60° C. for 20 s, for 40 cycles.

[3] = test system: Saccharomyces cerevisiae INVSc1 (pYES2-BraPIP1;1); assay: Thiamethoxam content experiment, recombinant yeast strain; format: cell-based; conditions: 30° C., 6 h
Text: as §2, §3

[4] = test system: BraPIP1;1 overexpression Arabidopsis thaliana; assay: Thiamethoxam content of BraPIP1;1 transgenic Arabidopsis thaliana grown in soil; format: in vivo; conditions: soil containing 10 mg/L thiamethoxam, 20 days, compared with wild plant
Text: as §1
In addition, germinated seedlings of the same size were transplanted into soil containing 10 mg/L thiamethoxam, and after 20 days of culture, the root and aboveground samples of the transgenic Arabidopsis thaliana and the control were harvested respectively, washed with deionized water, and weighed.

[5] = test system: Saccharomyces cerevisiae INVSc1 (pYES2-BraPIP1;1); assay: Growth experiment of recombinant yeast strains under thiamethoxam stress; format: cell-based; conditions: 10-1600 mg/L thiamethoxam, stress at 30° C. for 72 h, compared with wild strain (pYES2)
Text: as §2, §3

Chinese cabbage plants = conditions: 2 mg/L compound in Hoagland nutrient solution, mercuric chloride or glycerol added, 48 h

Compound	main root length of the transgenic strain [1]	thiamethoxam content of the control strain ([2]; 10 mg/L thiamethoxam) [ng/OD]	thiamethoxam content of the control strain (pYES2) ([2]; 100 mg/L thiamethoxam) [ng/OD]	expression abundance of BraPIP1;1 in the aboveground parts vs control (BraPIP1;1 gene; 6 hours)	expression abundance of BraPIP1;1 in the roots vs control (BraPIP1;1 gene; 6 hours)	expression abundance of BraPIP1;1 in the aboveground parts vs control (BraPIP1;1 gene; 24 hours)	thiamethoxam content of the recombinant strain ([3]; 10 mg/L thiamethoxam) [ng/OD]	thiamethoxam content of the recombinant strain (pYES2-BraPIP1;1) ([3]; 100 mg/L thiamethoxam) [ng/OD]	thiamethoxam content of the aboveground parts of the transgenic plant [4]	thiamethoxam content of the roots of the transgenic plant [4]	growth of transgenic strain (pYES2-BraPIP1;1) with thiamethoxam [5]	content of the compound in the plants after the water channel inhibitors were added (Chinese cabbage plants)
CN1COCN(Cc2cnc(Cl)s2)/C1=N\[N+](=O)[O-] [thiamethoxam]	shorter than that of the wild type	0.0038	0.011	significantly increased	significantly increased	significantly increased	0.0078	0.021	higher than that of the wild plant	higher than that of the wild plant	grows weaker than the wild strain	–
CN1CCCC1c1cccnc1 (stereo not drawn) [nicotine]	–	–	–	–	–	–	–	–	–	–	–	did not change significantly
